Laboratory results from patent US8802597B2, “Herbicidal pyrimidines” (E I du Pont de Nemours and Company, priority 2003, dated 2014).
Where two headings read alike, the source gives them in different places.

Tests used:
Type in all cases: in vivo
[1] = test system: rice (Oryza sativa); assay: Test C flooded paddy test; conditions: Flood, scale 0 to 100
How it was run: (§1)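 Plants were grown to the 2-leaf stage in a flooded paddy, treated, and kept in a greenhouse with untreated controls for 12 to 14 days. Injury was then scored visually against controls on a 0–100 scale, where 0 means no effect and 100 complete control.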

[2] = test system: umbrella sedge (Cyperus difformis); assay: Test C flooded paddy test; conditions: Flood, scale 0 to 100
How it was run: as §1

[3] = test system: duck salad (Heteranthera limosa); assay: Test C flooded paddy test; conditions: Flood, scale 0 to 100
How it was run: as §1

[4] = test system: barnyardgrass (Echinochloa crus-galli); assay: Test C flooded paddy test; conditions: Flood
How it was run: as §1

[5] = test system: common ragweed (Ambrosia elatior); assay: Test C pre/postemergence; conditions: for pest or weed control at 31 g/ha / pest or weed control at 62 g/ha / pest or weed control at 125 g/ha / pest or weed control at 250 g/ha: Ambrosia artemisiifolia
How it was run: (§2)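 Percent control is a visual rating (0 none, 100 complete) taken against untreated plants after 12 to 14 days of greenhouse growth. Applications were made preemergence to seeded pots and postemergence to plants at the 1- to 4-leaf stage, in a non-phytotoxic surfactant-containing solvent.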

[6] = test system: eastern black nightshade (Solanum ptycanthum); assay: Test C pre/postemergence; conditions: Preemergence
How it was run: as §2

[7] = test system: bermudagrass (Cynodon dactylon); assay: Test C pre/postemergence; conditions: for pest or weed control at 31 g/ha / pest or weed control at 62 g/ha / pest or weed control at 125 g/ha / pest or weed control at 250 g/ha: Cynodon dactylon
How it was run: as §2

[8] = 500 g ai/ha, scale 0 to 100 (0 no effect, 100 complete control)
[9] = Postemergence, 62 g ai/ha, scale 0 to 100 (0 no effect, 100 complete control)
[10] = Postemergence, 250 g ai/ha, scale 0 to 100
[11] = Preemergence, 31 g ai/ha, scale 0 to 100, 0 no effect, 100 complete control
[12] = Preemergence, 62 g ai/ha, scale 0 to 100, 0 no effect, 100 complete control
[13] = Preemergence, 125 g ai/ha, scale 0 to 100
[14] = Preemergence, 250 g ai/ha, scale 0 to 100

## COC(=O)c1nc(C2CC2)nc(N)c1Br [Compound 2, methyl 6-amino-5-bromo-2-cyclopropyl-4-pyrimidinecarboxylate]
[1]; 62 g ai/ha
  Plant response rating, Rice: 0
[1]; 125 g ai/ha
  Plant response rating, Rice: 25
[1]; 250 g ai/ha
  Plant response rating, Rice: 45
[1]; 500 g ai/ha
  Plant response rating, Rice: 65
[2]; 62 g ai/ha
  Plant response rating, Sedge, Umbrella: 0
[2]; 125 g ai/ha
  Plant response rating, Sedge, Umbrella: 0
[2]; 250 g ai/ha
  Plant response rating, Sedge, Umbrella: 0
[2]; 500 g ai/ha
  Plant response rating, Sedge, Umbrella: 25
[3]; 62 g ai/ha
  Plant response rating, Ducksalad: 50
[3]; 125 g ai/ha
  Plant response rating, Ducksalad: 70
[3]; 250 g ai/ha
  Plant response rating, Ducksalad: 90
[3]; 500 g ai/ha
  Plant response rating, Ducksalad: 95
[4]; 62 g ai/ha, scale 0 to 100
  Plant response rating, Barnyardgrass: 0
[4]; 125 g ai/ha, scale 0 to 100
  Plant response rating, Barnyardgrass: 20
[4]; 250 g ai/ha, scale 0 to 100
  Plant response rating, Barnyardgrass: 45
[4]; [8]
  Plant response rating, Barnyardgrass: 75
[5]; post-emergence, Postemergence, 31 g ai/ha, read-out: Plant response rating (scale of 0 to 100), Ragweed
  pest or weed control at 31 g/ha: 65%
[5]; post-emergence, Postemergence, 62 g ai/ha, scale 0 to 100 (0 no effect, 100 complete control), read-out: Ragweed plant response rating
  pest or weed control at 62 g/ha: 85%
[5]; post-emergence, Postemergence, 125 g ai/ha, scale 0 to 100 (0 no effect, 100 complete control), read-out: Ragweed plant response rating
  pest or weed control at 125 g/ha: 90%
[5]; post-emergence, Postemergence, 250 g ai/ha, scale 0 to 100, read-out: Plant response rating, Ragweed
  pest or weed control at 250 g/ha: 95%
[5]; pre-emergence, Preemergence, 31 g ai/ha, scale 0 to 100, 0 no effect, 100 complete control, read-out: Plant response rating, Ragweed
  pest or weed control at 31 g/ha: 0%
[5]; pre-emergence, Preemergence, 62 g ai/ha, scale 0 to 100, 0 no effect, 100 complete control, read-out: Plant response rating, Ragweed
  pest or weed control at 62 g/ha: 0%
[5]; pre-emergence, Preemergence, 125 g ai/ha, scale 0 to 100, read-out: Plant response rating, Ragweed
  pest or weed control at 125 g/ha: 0%
[5]; pre-emergence, Preemergence, 250 g ai/ha, scale 0 to 100, read-out: Plant response rating, Ragweed
  pest or weed control at 250 g/ha: 0%
[6]; Solanum, pre-emergence, 31 g ai/ha, scale 0 to 100, 0 no effect, 100 complete control, read-out: Plant response rating, Nightshade
  pest or weed control at 31 g/ha: 0%
[6]; Solanum, pre-emergence, 62 g ai/ha, scale 0 to 100, 0 no effect, 100 complete control, read-out: Plant response rating, Nightshade
  pest or weed control at 62 g/ha: 20%
[6]; Solanum, pre-emergence, 125 g ai/ha, scale 0 to 100, read-out: Plant response rating, Nightshade
  pest or weed control at 125 g/ha: 100%
[6]; Solanum, pre-emergence, 250 g ai/ha, scale 0 to 100, read-out: Plant response rating, Nightshade
  pest or weed control at 250 g/ha: 100%
[7]; post-emergence, Postemergence, 31 g ai/ha, read-out: Plant response rating (scale of 0 to 100), Bermudagrass
  pest or weed control at 31 g/ha: 15%
[7]; post-emergence, Postemergence, 62 g ai/ha, scale 0 to 100 (0 no effect, 100 complete control), read-out: Bermudagrass plant response rating
  pest or weed control at 62 g/ha: 60%
[7]; post-emergence, Postemergence, 125 g ai/ha, scale 0 to 100, read-out: Plant response rating, Bermudagrass
  pest or weed control at 125 g/ha: 70%
[7]; post-emergence, Postemergence, 250 g ai/ha, scale 0 to 100, read-out: Plant response rating, Bermudagrass
  pest or weed control at 250 g/ha: 80%
[7]; pre-emergence, Preemergence, 31 g ai/ha, scale 0 to 100, 0 no effect, 100 complete control, read-out: Plant response rating, Bermudagrass
  pest or weed control at 31 g/ha: 0%
[7]; pre-emergence, Preemergence, 62 g ai/ha, scale 0 to 100, 0 no effect, 100 complete control, read-out: Plant response rating, Bermudagrass
  pest or weed control at 62 g/ha: 0%
[7]; pre-emergence, Preemergence, 125 g ai/ha, scale 0 to 100, read-out: Plant response rating, Bermudagrass
  pest or weed control at 125 g/ha: 0%
[7]; pre-emergence, Preemergence, 250 g ai/ha, scale 0 to 100, read-out: Plant response rating, Bermudagrass
  pest or weed control at 250 g/ha: 0%

## CCCCOC(=O)c1nc(C2CC2)nc(N)c1Br [Compound 16]
[1]; 62 g ai/ha
  Plant response rating, Rice: 0
[1]; 125 g ai/ha
  Plant response rating, Rice: 0
[1]; 250 g ai/ha
  Plant response rating, Rice: 0
[1]; 500 g ai/ha
  Plant response rating, Rice: 65
[2]; 125 g ai/ha
  Plant response rating, Sedge, Umbrella: 0
[2]; 250 g ai/ha
  Plant response rating, Sedge, Umbrella: 50
[2]; 500 g ai/ha
  Plant response rating, Sedge, Umbrella: 55
[3]; 62 g ai/ha
  Plant response rating, Ducksalad: 65
[3]; 125 g ai/ha
  Plant response rating, Ducksalad: 65
[3]; 250 g ai/ha
  Plant response rating, Ducksalad: 75
[3]; 500 g ai/ha
  Plant response rating, Ducksalad: 85
[4]; 62 g ai/ha, scale 0 to 100
  Plant response rating, Barnyardgrass: 0
[4]; 125 g ai/ha, scale 0 to 100
  Plant response rating, Barnyardgrass: 0
[4]; 250 g ai/ha, scale 0 to 100
  Plant response rating, Barnyardgrass: 15
[4]; [8]
  Plant response rating, Barnyardgrass: 50
[5]; Postemergence, 31 g ai/ha
  Plant response rating (scale of 0 to 100), Ragweed: 60
[5]; [9]
  Ragweed plant response rating: 85
[5]; Postemergence, 125 g ai/ha, scale 0 to 100 (0 no effect, 100 complete control)
  Ragweed plant response rating: 95
[5]; [10]
  Plant response rating, Ragweed: 95
[5]; [11]
  Plant response rating, Ragweed: 45
[5]; [12]
  Plant response rating, Ragweed: 90
[5]; [13]
  Plant response rating, Ragweed: 95
[5]; [14]
  Plant response rating, Ragweed: 100
[6]; 31 g ai/ha, scale 0 to 100, 0 no effect, 100 complete control
  Plant response rating, Nightshade: 55
[6]; 62 g ai/ha, scale 0 to 100, 0 no effect, 100 complete control
  Plant response rating, Nightshade: 90
[6]; 125 g ai/ha, scale 0 to 100
  Plant response rating, Nightshade: 95
[6]; 250 g ai/ha, scale 0 to 100
  Plant response rating, Nightshade: 100
[7]; Postemergence, 31 g ai/ha
  Plant response rating (scale of 0 to 100), Bermudagrass: 0
[7]; [9]
  Bermudagrass plant response rating: 0
[7]; [10]
  Plant response rating, Bermudagrass: 75
[7]; Postemergence, 125 g ai/ha, scale 0 to 100
  Plant response rating, Bermudagrass: 60
[7]; [11]
  Plant response rating, Bermudagrass: 0
[7]; [12]
  Plant response rating, Bermudagrass: 0
[7]; [13]
  Plant response rating, Bermudagrass: 0
[7]; [14]
  Plant response rating, Bermudagrass: 0
